Converted amounts (≈) assume the structure as drawn. Where two headings read alike, the source gives them in different places. Positions of bridges follow the written chain, without caps; N, C: chain ends. Non-standard residues stand in square brackets, D forms with d. Residues, ends and D or L forms follow the SMILES beside them. *: point of attachment. Benzoyl(4-Ph) = O=C(c1ccc(-c2ccccc2)cc1)*; Dab = NCC[C@H](N)C(=O)O
Tests used:
[1] = test system: P. aeruginosa CANWARD-2011 96846; assay type: cell-based, Pseudomonas aeruginosa
In short: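 Broth microdilution per CLSI: overnight cultures adjusted to 0.5 McFarland in saline, diluted 1:50 in Mueller-Hinton broth to ~5×10^5 CFU/mL final, and incubated with 2-fold serial compound dilutions at 37° C. for 18 h. […]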

[2] = test system: P. aeruginosa PAO1; design: MICDrug / MICDrug in combo / MIC of adjuvant in combo: unit not given beside the values
[3] = test system: pig erythrocytes; test: Hemolytic assay; conditions: pig erythrocytes, 1 h at 37° C.
Experimental: The ability of the compounds to lyse eukaryotic red blood cells was measured by the amount of hemoglobin released upon incubation with pig erythrocytes, following a published protocol [30]. Briefly, fresh pig blood (generously provided by Dr. Richard Hodges, Director of Animal Care and Veterinary Services of the University of Manitoba) drawn from a pig's antecubital vein was centrifuged at 1000 g for 5 min at 4° C., washed with phosphate-buffered saline (PBS) three times, and re-suspended in the same buffer, consecutively. Compounds at study were 2-fold serially diluted in PBS on a 96-well plate and mixed with equal volumes of erythrocyte solution. Post 1 h incubation at 37° C., the intact cells were pelleted by centrifugation at 1000 g for 5 min at 4° C. Resulting supernatant was then transferred to a new 96-well plate. The hemoglobin released was then measured via an EMax Plus microplate reader (Molecular Devices, USA) at 570 nm wavelength. Erythrocytes in PBS with or without 0.1% Triton X-100 were used as positive or negative control, respectively.

[4] = combination with Chloramphenicol

In the case of CC(C)C[C@@H]1NC(=O)[C@@H](Cc2ccccc2)NC(=O)[C@H](CCN)NC(=O)[C@@H](NC(=O)[C@H](CCN)NC(=O)[C@@H](NC(=O)[C@H](CCNC(=O)c2ccc(-c3ccccc3)cc2)NC(=O)c2ccc(-c3ccccc3)cc2)[C@@H](C)O)CCNC(=O)[C@H]([C@@H](C)O)NC(=O)[C@H](CCN)NC(=O)[C@H](CCN)NC1=O [Compound 5, Dibiphenyl-4-Carboxylic Acid (Di-Biphenyl) Polymyxin] ({Benzoyl(4-Ph)}-[Dab](Benzoyl(4-Ph))T[Dab][Dab][Dab][dF]L[Dab][Dab]T; lactam 4-C), the MIC [1] was 64 µg/mL (≈ 45 µM), the “MIC of adjuvant alone (MIC1, MIC2, MIC3, MIC4, MIC5, MICPMBN)” value ([2]; adjuvant alone, one value per checkerboard, in µg/mL) was 16 and the FIC index ([2]; combination with Aztreonam) was 0.62. The Interpretation ([2]; combination with Aztreonam) was “Additive (An FIC index of ≤0.5, 0.5<x≤4, or >4 denotes for synergistic, additive or antagonistic interaction, respectively)”, the FIC index ([2]; combination with Ceftazidime) was 0.62 and the Interpretation ([2]; combination with Ceftazidime) was “Additive (An FIC index of ≤0.5, 0.5<x≤4, or >4 denotes for synergistic, additive or antagonistic interaction, respectively)”. For the same molecule, the FIC index [2, 4] was 0.50, the Interpretation [2, 4] was “Synergy (An FIC index of ≤0.5, 0.5<x≤4, or >4 denotes for synergistic, additive or antagonistic interaction, respectively)” and the FIC index ([2]; combination with Ciprofloxacin) was 1.00. For the same molecule, the Interpretation ([2]; combination with Ciprofloxacin) was “Additive (An FIC index of ≤0.5, 0.5<x≤4, or >4 denotes for synergistic, additive or antagonistic interaction, respectively)”, the FIC index ([2]; combination with Clindamycin) was 0.53 and the Interpretation ([2]; combination with Clindamycin) was “Additive (An FIC index of ≤0.5, 0.5<x≤4, or >4 denotes for synergistic, additive or antagonistic interaction, respectively)”. For the same molecule, the FIC index ([2]; combination with Doripenem) was 1.00, the Interpretation ([2]; combination with Doripenem) was “Additive (An FIC index of ≤0.5, 0.5<x≤4, or >4 denotes for synergistic, additive or antagonistic interaction, respectively)” and the FIC index ([2]; combination with Doxycycline) was 0.53. For the same molecule, the Interpretation ([2]; combination with Doxycycline) was “Additive (An FIC index of ≤0.5, 0.5<x≤4, or >4 denotes for synergistic, additive or antagonistic interaction, respectively)”, the FIC index ([2]; combination with Fosfomycin) was 0.56 and the Interpretation ([2]; combination with Fosfomycin) was “Additive (An FIC index of ≤0.5, 0.5<x≤4, or >4 denotes for synergistic, additive or antagonistic interaction, respectively)”. The FIC index ([2]; combination with Gentamicin) was 2.01, the Interpretation ([2]; combination with Gentamicin) was “Additive (An FIC index of ≤0.5, 0.5<x≤4, or >4 denotes for synergistic, additive or antagonistic interaction, respectively)” and the FIC index ([2]; combination with Linezolid) was 0.53. The Interpretation ([2]; combination with Linezolid) was “Additive (An FIC index of ≤0.5, 0.5<x≤4, or >4 denotes for synergistic, additive or antagonistic interaction, respectively)”, the FIC index ([2]; combination with Meropenem) was 1.00 and the Interpretation ([2]; combination with Meropenem) was “Additive (An FIC index of ≤0.5, 0.5<x≤4, or >4 denotes for synergistic, additive or antagonistic interaction, respectively)”. For the same molecule, the FIC index ([2]; combination with Minocycline) was 0.62, the Interpretation ([2]; combination with Minocycline) was “Additive (An FIC index of ≤0.5, 0.5<x≤4, or >4 denotes for synergistic, additive or antagonistic interaction, respectively)” and the FIC index ([2]; combination with Moxifloxacin) was 0.75. The Interpretation ([2]; combination with Moxifloxacin) was “Additive (An FIC index of ≤0.5, 0.5<x≤4, or >4 denotes for synergistic, additive or antagonistic interaction, respectively)”, the FIC index ([2]; combination with Novobiocin) was 0.50 and the Interpretation ([2]; combination with Novobiocin) was “Synergy (An FIC index of ≤0.5, 0.5<x≤4, or >4 denotes for synergistic, additive or antagonistic interaction, respectively)”. The FIC index ([2]; combination with Piperacillin) was 1.00, the Interpretation ([2]; combination with Piperacillin) was “Additive (An FIC index of ≤0.5, 0.5<x≤4, or >4 denotes for synergistic, additive or antagonistic interaction, respectively)” and the Interpretation ([2]; combination with Pleuromutilin) was “Additive (An FIC index of ≤0.5, 0.5<x≤4, or >4 denotes for synergistic, additive or antagonistic interaction, respectively)”. The FIC index ([2]; combination with Rifampicin) was 0.31, the Interpretation ([2]; combination with Rifampicin) was “Synergy (An FIC index of ≤0.5, 0.5<x≤4, or >4 denotes for synergistic, additive or antagonistic interaction, respectively)” and the FIC index ([2]; combination with Streptomycin) was 1.00. For the same molecule, the Interpretation ([2]; combination with Streptomycin) was “Additive (An FIC index of ≤0.5, 0.5<x≤4, or >4 denotes for synergistic, additive or antagonistic interaction, respectively)”, the FIC index ([2]; combination with Tobramycin) was 1.01 and the Interpretation ([2]; combination with Tobramycin) was “Additive (An FIC index of ≤0.5, 0.5<x≤4, or >4 denotes for synergistic, additive or antagonistic interaction, respectively)”. The FIC index ([2]; combination with Trimethoprim) was 0.62, the Interpretation ([2]; combination with Trimethoprim) was “Additive (An FIC index of ≤0.5, 0.5<x≤4, or >4 denotes for synergistic, additive or antagonistic interaction, respectively)” and the FIC index ([2]; combination with Vancomycin) was 0.51. For the same molecule, the Interpretation ([2]; combination with Vancomycin) was “Additive (An FIC index of ≤0.5, 0.5<x≤4, or >4 denotes for synergistic, additive or antagonistic interaction, respectively)”, the “MIC of adjuvant in combo” value ([2]; in combination with Aztreonam) was “(8)” and the “MIC of adjuvant in combo” value ([2]; in combination with Ceftazidime) was “(8)”. The “MIC of adjuvant in combo” value ([2]; in combination with Chloramphenicol) was “(4)”, the “MIC of adjuvant in combo” value ([2]; in combination with Ciprofloxacin) was “(8)” and the “MIC of adjuvant in combo” value ([2]; in combination with Clindamycin) was “(8)”. The “MIC of adjuvant in combo” value ([2]; in combination with Doripenem) was “(8)”, the “MIC of adjuvant in combo” value ([2]; in combination with Doxycycline) was “(8)” and the “MIC of adjuvant in combo” value ([2]; in combination with Fosfomycin) was “(8)”. For the same molecule, the “MIC of adjuvant in combo” value ([2]; in combination with Gentamicin) was “(0.25)”, the “MIC of adjuvant in combo” value ([2]; in combination with Linezolid) was “(8)” and the “MIC of adjuvant in combo” value ([2]; in combination with Meropenem) was “(8)”. For the same molecule, the “MIC of adjuvant in combo” value ([2]; in combination with Minocycline) was “(8)”, the “MIC of adjuvant in combo” value ([2]; in combination with Moxifloxacin) was “(8)” and the “MIC of adjuvant in combo” value ([2]; in combination with Novobiocin) was “(4)”. For the same molecule, the “MIC of adjuvant in combo” value ([2]; in combination with Piperacillin) was “(8)”, the “MIC of adjuvant in combo” value ([2]; in combination with Pleuromutilin) was “(8)” and the “MIC of adjuvant in combo” value ([2]; in combination with Rifampicin) was “(4)”. For the same molecule, the “MIC of adjuvant in combo” value ([2]; in combination with Streptomycin) was “(8)”, the “MIC of adjuvant in combo” value ([2]; in combination with Tobramycin) was “(0.25)” and the “MIC of adjuvant in combo” value ([2]; in combination with Trimethoprim) was “(8)”. For the same molecule, the “MIC of adjuvant in combo” value ([2]; in combination with Vancomycin) was “(8)”, the “% Hemolysis at 512 μg/mL of polymyxin” value ([3]; 512 μg/mL) was 13.1 ± 1.4% and the “MHC5, minimum concentration that resulted in 5% red blood cell hemolysis” value [3] was 128 µg/mL.

From US20210261621A1, “Preparation of Dilipid Polymixins and Use Thereof as Antimicrobial Adjuvants” (priority 2018, published 2021)
